The record followed here is patent publication US8309608B2, “Use of eNOS transcription enhancers in the cell therapy of ischemic heart diseases” (Sanofi-Aventis Deutschland GmbH, priority 2003, dated 2012).

The test system of data set [1] is bone marrow stem and progenitor cells. Kind of data set: migratory capacity of bone marrow stem and progenitor cells in response to SDF-1 (modified Boyden chamber). The class given is cell-based, human. The conditions noted are these: 100 ng/ml SDF-1. On the procedure:
For incubation with the eNOS transcription enhancer 4-fluoro-N-(indan-2-yl)benzamide, 1 ml of a suspension of 1000000 stem and progenitor cells in 1 ml of X-Vivo 10 cell culture medium was mixed with 1 μl of a solution of 4-fluoro-N-(indan-2-yl)benzamide in dimethylsulfoxide (DMSO) which had been prepared by dissolution of 1.275 mg of 4-fluoro-N-(indan-2-yl)benzamide in 1 ml of DMSO. The concentration of 4-fluoro-N-(indan-2-yl)benzamide in the resulting mixture was 5 μM. For incubation with the eNOS transcription enhancer 4-fluoro-N-(indan-2-yl)benzamide and the eNOS inhibitor N^G-monomethyl-L-arginine (L-NMMA), in addition to 4-fluoro-N-(indan-2-yl)benzamide, L-NMMA (Sigma, St. Louis, Mo., USA) was added to the cell suspension to give a resulting mixture with a 4-fluoro-N-(indan-2-yl)benzamide concentration of 5 μM and an L-NMMA concentration of 1 mM. Incubation was carried for 18 hours at a temperature of 37° C. under an atmosphere of air containing 5% of carbon dioxide. The cells were isolated by centrifugation, washed two times with PBS and resuspended in X-Vivo 10.
For assessing the migratory capacity of bone marrow stem and progenitor cells, a total of 1×10^6 bone marrow stem and progenitor cells were resuspended in 250 μl of X-Vivo 10 and placed in the upper chamber of a modified Boyden chamber filled with matrigel (BioCoat invasion assay, 8 μm pore size, Becton Dickinson Labware, Two Oak Park, Bedford, Mass., USA). Then, the chamber was placed in a 24-well culture dish containing 500 μl endothelial basic medium (EBM) supplemented with either phosphate buffered saline (PBS), 50 ng/ml VEGF, or 100 ng/ml SDF-1. After 24 hours incubation at 37° C., transmigrated cells were counted.

The test system of data set [2] is athymic NMRI nude mice, hind limb ischemia. Kind of data set: in vivo hind limb ischemia model in mice (laser Doppler blood flow after injection of pretreated cells). To be noted: 5×10^5 cells/mouse i.v., measured after two weeks. On the procedure:
For incubation with the eNOS transcription enhancer 4-fluoro-N-(indan-2-yl)benzamide, 1 ml of a suspension of 1000000 stem and progenitor cells in 1 ml of X-Vivo 10 cell culture medium was mixed with 1 μl of a solution of 4-fluoro-N-(indan-2-yl)benzamide in dimethylsulfoxide (DMSO) which had been prepared by dissolution of 1.275 mg of 4-fluoro-N-(indan-2-yl)benzamide in 1 ml of DMSO. The concentration of 4-fluoro-N-(indan-2-yl)benzamide in the resulting mixture was 5 μM. […]
The neovascularization capacity of bone marrow stem and progenitor cells was investigated in a murine model of hind limb ischemia by use of 8 to 10 week old athymic NMRI nude mice (The Jackson Laboratory, Bar Harbor, Me., USA) weighing 18 to 22 g. […] After two weeks the limb perfusion was determined. Specifically, the ischemic (right) limb/normal (left) limb blood flow ratio was measured using a laser Doppler blood flow meter (Laser Doppler Perfusion Imager System, MoorLDI-Mark 2, Moor Instruments, Wilmington, Del., USA). […] After twice recording laser Doppler color images, the average perfusions of the ischemic and non-ischemic limb were calculated on the basis of colored histogram pixels. To minimize variables including ambient light and temperature, calculated perfusion was expressed as the ratio of ischemic to non-ischemic hind limb perfusion. […]

Data set [3] has as its system eNOS promoter (eNOS transcription). The experiment in a line: luciferase assay for activation of eNOS transcription. The class given is cell-based. To be noted: human endothelial cell line with eNOS promoter-luciferase construct, 18 hours incubation; for TIR(max) value (maximum transcription induction ratio): ratio vs solvent alone; for EC50: read-out: EC50 value of transcription induction ratio. As for the experimental part: Activation of eNOS transcription was measured as described in detail in Li et al., Activation of protein kinase C alpha and/or epsilon enhances transcription of the human endothelial nitric oxide synthase gene, Mol. Pharmacol. 1998, 53:630-637. Briefly, a 3.5 kB long fragment 5′ of the starting codon of the eNOS gene was cloned, sequenced and cloned in firefly luciferase expression plasmids to monitor activation of the eNOS promoter by reporter gene activity. A human endothelial cell line stable transfected and expressing this promoter-reporter construct was used for compound testing. Cells were incubated for 18 hours with compounds. All compounds were dissolved before in sterile dimethylsulfoxide (DMSO). A final concentration of 0.5% DMSO in complete medium was allowed. Induction of reporter gene expression in these cells was measured using a standard luciferase assay system (Promega, Madison, Wis., USA; Cat. No E150) according to the manufacturer's instructions. Luciferase induction in cells incubated with compounds were compared to those incubated with solvent alone. The ratio of both activities (transcription induction ratio, TIR) was plotted as a function of compound concentration. Typically, TIR values started at low concentrations at a ratio of 1, indicating no compound effect, and extended up to a maximum TIR value TIR(max) which indicates the increase of the eNOS transcription. EC50 values of transcription induction ratios as a function of compound concentration were determined graphically.

`O=C(NC1Cc2ccccc2C1)c1ccc(F)cc1` [4-fluoro-N-(indan-2-yl)benzamide]: the melting point (as a rule, the temperature, or range, at which the solid turns liquid) amounted to 167 °C. The “migratory response to SDF-1” value in data set [1] (cells from the healthy controls, 18 hours of treatment with 5 μM compound) is 111.2±38.5 ×1000 migrated cells. In data set [1] (cells from the healthy controls, 18 hours of treatment with 5 μM compound, listed as 4-fluoro-(N-indan-2-yl)benzamide), the “migratory response to SDF-1” value was 74.3±21.5 ×1000 migrated cells. For the same molecule, the “migratory response to SDF-1” value in data set [1] (cells from the patients, 18 hours of treatment with 5 μM compound and 1 mM L-NMMA) is on record as 23.9±7.4 ×1000 migrated cells. The “migratory response to SDF-1” value in data set [1] (cells from the patients, 18 hours of treatment with 5 μM compound) is reported as 74.0±20.7 ×1000 migrated cells. Also, in data set [2] (cells from the patients treated for 18 hours with 5 μM compound and 1 mM L-NMMA), the “laser Doppler-derived relative blood flow (ratio ischemic limb/normal limb)” value stood at 39.7 ± 10.3%. The “laser Doppler-derived relative blood flow (ratio ischemic limb/normal limb)” value in data set [2] (cells from the patients treated for 18 hours with 5 μM compound) worked out at 59.1 ± 11.6%. In data set [3], the “TIR(max) value (maximum transcription induction ratio)” value is given as 4.10 and the EC50 came out at 800 nM.

For `O=C(NC1Cc2ccccc2C1)c1ccc2c(c1)OC(F)(F)O2` [2,2-difluorobenzo[1,3]dioxol-5-carboxylic acid indan-2-ylamide], the melting point was 147.5 °C. Moreover, in data set [3], the “TIR(max) value (maximum transcription induction ratio)” value came out at 2.7 and the EC50 was 140 nM.
